Patent US11000514B2, “Antifungal compounds” (Duke University, priority 2014, dated 2021)

How the values were obtained:
Format in all cases: cell-based
Asp = experiment: standardized in vitro susceptibility test, Asp alone (MEC)
Asp/Caspo = experiment: standardized in vitro susceptibility test, Asp/Caspo; details: with Caspo
Candida w/ FLu. = experiment: standardized in vitro susceptibility test, Candida w/ FLu.; details: with FLu.; yes/no
C. neo = experiment: standardized in vitro susceptibility test, C. neo; details: yes/no

| Structure (SMILES) | Active Asp alone (MEC) (Asp; yes/no) | Active Asp Caspo (Asp/Caspo; concentration) [µg/mL] | Active Asp Caspo (Asp/Caspo; yes/no) | Active Candida w/ FLu. (Candida w/ FLu.) | Active C. neo (C. neo) | Active Asp alone (MEC) (Asp; MEC concentration) |
| --- | --- | --- | --- | --- | --- | --- |
| CCCC/C=C/C[C@@H]1/C=C(\C)C[C@H](C)C[C@H](OC)[C@H]2O[C@@](O)(C(=O)C(=O)N3CCCC[C@H]3C(=O)O[C@H](/C(C)=C/[C@@H]3CC[C@@H](O)[C@H](OC)C3)[C@H](C)[C@@H](O)CC1=O)[C@H](C)C[C@@H]2OC [Compound 3] | no | 4 | yes | yes | yes | – |
| CO[C@H]1C[C@@H](C)C/C(C)=C/[C@@H](C/C=C/CC(=O)O)C(=O)C[C@H](O)[C@@H](C)[C@@H](/C(C)=C/[C@@H]2CC[C@@H](O)[C@H](OC)C2)OC(=O)[C@@H]2CCCCN2C(=O)C(=O)[C@]2(O)O[C@H]1[C@@H](OC)C[C@H]2C [Compound 5] | yes | 1 | yes | yes | yes | (8 ug/mL) |
| CCC(C)C/C=C/C[C@@H]1/C=C(\C)C[C@H](C)C[C@H](OC)[C@H]2O[C@@](O)(C(=O)C(=O)N3CCCC[C@H]3C(=O)O[C@H](/C(C)=C/[C@@H]3CC[C@@H](O)[C@H](OC)C3)[C@H](C)[C@@H](O)CC1=O)[C@H](C)C[C@@H]2OC (some centres unmarked) [Compound 4] | no | 8 | yes | yes | yes | – |
| CO[C@H]1C[C@@H](C)C/C(C)=C/[C@@H](C/C=C/c2ccc(C(=O)O)cc2)C(=O)C[C@H](O)[C@@H](C)[C@@H](/C(C)=C/[C@@H]2CC[C@@H](O)[C@H](OC)C2)OC(=O)[C@@H]2CCCCN2C(=O)C(=O)[C@]2(O)O[C@H]1[C@@H](OC)C[C@H]2C [Compound 2] | yes | – | Yes | no | yes | – |
